Measured values as given in patent US20250034122A1, “SUBSTITUTED N-CYANOPYRROLIDINES WITH ACTIVITY AS USP30 INHIBITORS” (MISSION THERAPEUTICS LIMITED, priority 2021, published 2025).

Legend:
TOM20 ubiquitylation = experiment: TOM20-ubiquitylation assay (western blot of cell lysates); type: cell-based, Human; conditions: antimycin A/oligomycin mitophagy trigger, concentration for 1.5-fold gain of TOM20-Ub
From the text: TOM20-Ubiquitylation Assay Human cell lines can be challenged with mitochondrial depolarizing agents (ionophores (eg. CCCP, valinomycin), mitochondrial complex inhibitors (oligomycin, antimycin A)) to induce ubiquitylation of TOM20, which is then further promoted in the presence of USP30 inhibitors. TOM20 ubiquitylation is subsequently assessed through western blotting of the cell lysates, with TOM20 ubiquitylation adduct detection possible due to an 8 kDa molecule weight increase for each molecule of ubiquitin added, resulting in laddering of a TOM20 immunoreactive band. TOM20-ubiquitylation levels can be quantified using chemiluminescence densitometry of laddered immunoreactive bands.

USP30 = USP30 (Homo sapiens (Human), UniProt Q70CQ3); experiment: USP30 biochemical IC50 assay (fluorescence polarisation); conditions: geomean; USP30 4 nM, 30 min pre-incubation, TAMRA-peptide-ubiquitin FP substrate
Sequence of USP30 (Q70CQ3 57-517): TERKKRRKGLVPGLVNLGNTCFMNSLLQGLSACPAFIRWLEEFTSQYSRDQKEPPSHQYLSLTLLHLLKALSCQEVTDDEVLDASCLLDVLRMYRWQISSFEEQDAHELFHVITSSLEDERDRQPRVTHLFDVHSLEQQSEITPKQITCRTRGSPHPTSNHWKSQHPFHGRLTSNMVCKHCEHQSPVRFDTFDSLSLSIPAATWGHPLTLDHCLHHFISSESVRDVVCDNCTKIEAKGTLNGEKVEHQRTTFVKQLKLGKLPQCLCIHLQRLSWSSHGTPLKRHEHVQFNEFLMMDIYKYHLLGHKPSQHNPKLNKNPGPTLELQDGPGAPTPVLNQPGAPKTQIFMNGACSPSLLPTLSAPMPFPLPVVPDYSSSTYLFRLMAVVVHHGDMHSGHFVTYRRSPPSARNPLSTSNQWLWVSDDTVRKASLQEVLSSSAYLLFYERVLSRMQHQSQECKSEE
Method: Dilution plates were prepared at 21 times the final concentration (2100 μM for a final concentration of 100 μM) in 50% DMSO in a 96-well polypropylene V-bottom plate (Greiner #651201). A typical 8-point dilution series would be 100, 30, 10, 3, 1, 0.3, 0.1, 0.03 μM final. Reactions were performed in duplicate in black 384 well plates (small volume, Greiner 784076) in a final reaction volume of 21 μl.
Either lpl of 50% DMSO or diluted compound was added to the plate. USP30 (Boston Biochem #E582) was diluted in reaction buffer (40 mM Tris, pH 7.5, 0.005% Tween 20, 0.5 mg/ml BSA, 5 mM beta-mercaptoethanol) to achieve a final assay concentration of 4 nM, and 10 μl of diluted USP30 was added to the compound. Enzyme and compound were incubated for 30 min at room temp. Reactions were initiated by the addition of 50 nM of TAMRA labelled peptide linked to ubiquitin via an isopeptide bond as fluorescence polarisation substrate. Reactions were read immediately after addition of substrate and following a 2-hour incubation at room temperature. Readings were performed on a Pherastar Plus (BMG Labtech). λ Excitation 540 nm; λ Emission 590 nm.

| SMILES | EC1.5x (Geomean, nM); TOM20-Ub 1.5-fold gain (TOM20 ubiquitylation) [nM] | IC50 (USP30) [nM] |
| --- | --- | --- |
| N#CN1C[C@H](NC(=O)c2ncc(-c3cccc(Cl)c3)o2)C[C@H]1Cn1ccnn1 [Example 5, N-((3R,5S)-5-((1H-1,2,3-Triazol-1-yl)methyl)-1-cyanopyrrolidin-3-yl)-5-(3-chlorophenyl)oxazole-2-carboxamide] | 9 | 4 |
| N#Cc1cnc(N2CCC2)c(-c2nnc(C(=O)N[C@@H]3C[C@@H](Cn4ccnn4)N(C#N)C3)o2)c1 [Example 40, N-((3R,5S)-5-((1H-1,2,3-Triazol-1-yl)methyl)-1-cyanopyrrolidin-3-yl)-5-(2-(azetidin-1-yl)-5-cyanopyridin-3-yl)-1,3,4-oxadiazole-2-carboxamide] |  | 12 |
| N#CN1C[C@H](NC(=O)c2nnc(-c3cc(OC(F)(F)F)ccc3C3CC3)o2)C[C@H]1Cn1cnnc1 [Example 49, N-((3R,5S)-5-((4H-1,2,4-Triazol-4-yl)methyl)-1-cyanopyrrolidin-3-yl)-5-(2-cyclopropyl-5-(trifluoromethoxy)phenyl)-1,3,4-oxadiazole-2-carboxamide] |  | 6 |
| Cn1ncc2cc(-c3ccc(C(=O)N[C@@H]4C[C@@H](Cn5ccnn5)N(C#N)C4)c(F)c3)ccc21 [Example 35, N-((3R,5S)-5-((1H-1,2,3-Triazol-1-yl)methyl)-1-cyanopyrrolidin-3-yl)-2-fluoro-4-(1-methyl-1H-indazol-5-yl)benzamide] |  | 27 |
| N#CN1C[C@H](NC(=O)N2CCC(c3cccc(OC(F)(F)F)c3)C2)C[C@H]1Cn1cccn1 (stereo partly drawn) [Example 36, N-((3R,5S)-5-((1H-Pyrazol-1-yl)methyl)-1-cyanopyrrolidin-3-yl)-3-(3-(trifluoromethoxy)phenyl) pyrrolidine-1-carboxamide] |  | 100 |
| N#CN1C[C@H](NC(=O)c2nnc(-c3cc(OC(F)(F)F)ccc3C3CC3)o2)C[C@H]1Cn1nccn1 [Example 45, N-((3R,5S)-5-((2H-1,2,3-Triazol-2-yl)methyl)-1-cyanopyrrolidin-3-yl)-5-(2-cyclopropyl-5-(trifluoromethoxy)phenyl)-1,3,4-oxadiazole-2-carboxamide] |  | 7 |
| N#CN1C[C@H](NC(=O)c2nc(-c3cc(OC(F)(F)F)ccc3C3CC3)no2)C[C@H]1Cn1ccnn1 [Example 50, N-((3R,5S)-5-((1H-1,2,3-Triazol-1-yl)methyl)-1-cyanopyrrolidin-3-yl)-3-(2-cyclopropyl-5-(trifluoromethoxy)phenyl)-1,2,4-oxadiazole-5-carboxamide] |  | 5 |
| Cn1ncc2cc(-c3ccc(C(=O)N[C@@H]4C[C@@H](Cn5cccn5)N(C#N)C4)c(F)c3)ccc21 [Example 34, N-((3R,5S)-5-((1H-Pyrazol-1-yl)methyl)-1-cyanopyrrolidin-3-yl)-2-fluoro-4-(1-methyl-1H-indazol-5-yl)benzamide] |  | 44 |
| N#Cc1cnc(N2CCCC2)c(-c2nnc(C(=O)N[C@@H]3C[C@@H](Cn4ccnn4)N(C#N)C3)o2)c1 [Example 41, N-((3R,5S)-5-((1H-1,2,3-Triazol-1-yl)methyl)-1-cyanopyrrolidin-3-yl)-5-(5-cyano-2-(pyrrolidin-1-yl)pyridin-3-yl)-1,3,4-oxadiazole-2-carboxamide] |  | 9 |
| N#CN1C[C@H](NC(=O)c2ncc(-c3cccc(OC(F)(F)F)c3)o2)C[C@H]1Cn1ccnn1 [Example 4, N-((3R,5S)-5-((1H-1,2,3-Triazol-1-yl)methyl)-1-cyanopyrrolidin-3-yl)-5-(3-(trifluoromethoxy)phenyl)oxazole-2-carboxamide] |  | 3 |
| Cc1ccnn1C[C@@H]1C[C@@H](NC(=O)c2ncc(-c3cccc(OC(F)(F)F)c3)o2)CN1C#N [Example 29, N-((3R,5S)-1-Cyano-5-((5-methyl-1H-pyrazol-1-yl)methyl)pyrrolidin-3-yl)-5-(3-(trifluoromethoxy)phenyl)oxazole-2-carboxamide] |  | 55 |
| N#Cc1ccc(C2CC2)c(-c2cnc(C(=O)N[C@@H]3C[C@@H](Cn4ccnn4)N(C#N)C3)o2)c1 [Example 9, N-((3R,5S)-5-((1H-1,2,3-Triazol-1-yl)methyl)-1-cyanopyrrolidin-3-yl)-5-(5-cyano-2-cyclopropylphenyl)oxazole-2-carboxamide] |  | 2 |
| N#CN1C[C@H](NC(=O)c2nnc(-c3cc(OC(F)(F)F)ccc3OC3CC3)o2)C[C@H]1Cn1ccnn1 [Example 15, N-((3R,5S)-5-((1H-1,2,3-Triazol-1-yl)methyl)-1-cyanopyrrolidin-3-yl)-5-(2-cyclopropoxy-5-(trifluoromethoxy)phenyl)-1,3,4-oxadiazole-2-carboxamide] |  | 8 |
| Cc1ccn(C[C@@H]2C[C@@H](NC(=O)c3ncc(-c4cccc(OC(F)(F)F)c4)o3)CN2C#N)n1 [Example 28, N-((3R,5S)-1-Cyano-5-((3-methyl-1H-pyrazol-1-yl)methyl)pyrrolidin-3-yl)-5-(3-(trifluoromethoxy)phenyl)oxazole-2-carboxamide] |  | 10 |
| N#CN1C[C@H](NC(=O)c2ccc(-c3cccc4[nH]ncc34)nc2)C[C@H]1Cn1cccn1 [Example 52, N-((3R,5S)-5-((1H-Pyrazol-1-yl)methyl)-1-cyanopyrrolidin-3-yl)-6-(1H-indazol-4-yl)nicotinamide] |  | 15 |
| N#CN1C[C@H](NC(=O)c2ncc(-c3ccc(F)c(OC(F)(F)F)c3)o2)C[C@H]1Cn1ccnn1 [Example 39, N-((3R,5S)-5-((1H-1,2,3-Triazol-1-yl)methyl)-1-cyanopyrrolidin-3-yl)-5-(4-fluoro-3-(trifluoromethoxy)phenyl)oxazole-2-carboxamide] |  | 8 |
| N#CN1C[C@H](NC(=O)N2CCC(c3cccc(OC(F)(F)F)c3)C2)C[C@H]1Cn1cccn1 (stereo partly drawn) [Example 38] |  | 210 |
| N#CN1C[C@H](NC(=O)c2cc(-c3cccc(OC(F)(F)F)c3)ccn2)C[C@H]1Cn1ccnn1 [Example 25, N-((3R,5S)-5-((1H-1,2,3-Triazol-1-yl)methyl)-1-cyanopyrrolidin-3-yl)-4-(3-(trifluoromethoxy)phenyl)picolinamide] |  | 9 |
| N#CN1C[C@H](NC(=O)c2ncc(-c3cccc(OC(F)(F)F)c3)o2)C[C@H]1Cn1cccn1 [Example 27, N-((3R,5S)-5-((1H-Pyrazol-1-yl)methyl)-1-cyanopyrrolidin-3-yl)-5-(3-(trifluoromethoxy)phenyl)oxazole-2-carboxamide] |  | 9 |
| N#CN1C[C@H](NC(=O)c2nnc(-c3cc(OC(F)(F)F)ccc3Cl)o2)C[C@H]1Cn1ccnn1 [Example 42, N-((3R,5S)-5-((1H-1,2,3-Triazol-1-yl)methyl)-1-cyanopyrrolidin-3-yl)-5-(2-chloro-5-(trifluoromethoxy)phenyl)-1,3,4-oxadiazole-2-carboxamide] |  | 6 |
| N#CN1C[C@H](NC(=O)c2nnc(-c3cc(OC(F)(F)F)ccc3C3CC3)o2)C[C@H]1Cn1cncn1 [Example 47, N-((3R,5S)-5-((1H-1,2,4-Triazol-1-yl)methyl)-1-cyanopyrrolidin-3-yl)-5-(2-cyclopropyl-5-(trifluoromethoxy)phenyl)-1,3,4-oxadiazole-2-carboxamide] |  | 5 |
| N#Cc1ccc(C2CC2)c(-c2nnc(C(=O)N[C@@H]3C[C@@H](Cn4ccnn4)N(C#N)C3)o2)c1 [Example 14, N-((3R,5S)-5-((1H-1,2,3-Triazol-1-yl)methyl)-1-cyanopyrrolidin-3-yl)-5-(5-cyano-2-cyclopropylphenyl)-1,3,4-oxadiazole-2-carboxamide] |  | 4 |
| N#CN1C[C@H](NC(=O)c2noc(-c3cc(OC(F)(F)F)ccc3C3CC3)n2)C[C@H]1Cn1ccnn1 [Example 51, N-((3R,5S)-5-((1H-1,2,3-Triazol-1-yl)methyl)-1-cyanopyrrolidin-3-yl)-5-(2-cyclopropyl-5-(trifluoromethoxy)phenyl)-1,2,4-oxadiazole-3-carboxamide] |  | 14 |
| CCCc1ccc(OC(F)(F)F)cc1-c1nnc(C(=O)N[C@@H]2C[C@@H](Cn3ccnn3)N(C#N)C2)o1 [Example 48, N-((3R,5S)-5-((1H-1,2,3-Triazol-1-yl)methyl)-1-cyanopyrrolidin-3-yl)-5-(2-propyl-5-(trifluoromethoxy)phenyl)-1,3,4-oxadiazole-2-carboxamide] |  | 5 |
| N#Cc1cccc(-c2cnc(C(=O)N[C@@H]3C[C@@H](Cn4cnnc4)N(C#N)C3)o2)c1 [Example 19, N-((3R,5S)-5-((4H-1,2,4-Triazol-4-yl)methyl)-1-cyanopyrrolidin-3-yl)-5-(3-cyanophenyl)oxazole-2-carboxamide] |  | 2 |
| N#CN1C[C@H](NC(=O)c2nnc(-c3cccc(OC(F)(F)F)c3)o2)C[C@H]1Cn1ccnn1 [Example 43, N-((3R,5S)-5-((1H-1,2,3-Triazol-1-yl)methyl)-1-cyanopyrrolidin-3-yl)-5-(3-(trifluoromethoxy)phenyl)-1,3,4-oxadiazole-2-carboxamide] |  | 12 |
| CCc1cccc(-c2cnc(C(=O)N[C@@H]3C[C@@H](Cn4ccnn4)N(C#N)C3)o2)c1 [Example 11, N-((3R,5S)-5-((1H-1,2,3-Triazol-1-yl)methyl)-1-cyanopyrrolidin-3-yl)-5-(3-ethylphenyl)oxazole-2-carboxamide] |  | 4 |
| N#CN1C[C@H](NC(=O)c2nnc(-c3cc(OC(F)(F)F)ccc3C3CC3)o2)C[C@H]1Cn1cccn1 [Example 44, N-((3R,5S)-5-((1H-Pyrazol-1-yl)methyl)-1-cyanopyrrolidin-3-yl)-5-(2-cyclopropyl-5-(trifluoromethoxy)phenyl)-1,3,4-oxadiazole-2-carboxamide] |  | 5 |
| N#CN1C[C@H](NC(=O)N2CCC(c3cccc(OC(F)(F)F)c3)C2)C[C@H]1Cn1cccn1 (single isomer, unassigned) [Example 37] |  | 120 |
